Measured values published in patent US10131652B2, “Pyrimidinyloxy benzene derivatives as herbicides” (E. I. DU PONT DE NEMOURS AND COMPANY, priority 2014, dated 2018).

Experiments:
Assay type in all cases: in vivo
[1] = test system: pigweed (Amaranthus retroflexus); assay: Test B pre-/postemergence plant response
Summary of the method: (§1)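 Steps: plant seeds in loam soil–sand mix; spray soil preemergence, and in parallel spray 2–10 cm one- to two-leaf plants postemergence; hold ~10 days in greenhouse; visually rate injury against untreated controls (0 = no effect, 100 = complete control).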

[2] = test system: wheat (Triticum aestivum); assay: Test B pre-/postemergence plant response
Summary of the method: as §1

[3] = test system: giant foxtail (Setaria faberii); assay: Test B pre-/postemergence plant response
Summary of the method: as §1

[4] = test system: corn (Zea mays); assay: Test B pre-/postemergence plant response
Summary of the method: as §1

[5] = test system: barnyardgrass (Echinochloa crus-galli); assay: Test B pre-/postemergence plant response
Summary of the method: as §1

[6] = test system: morningglory (Ipomoea coccinea); assay: Test D pre-/postemergence plant response; conditions: Postemergence
Summary of the method: (§2)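 Test chemicals were formulated in a non-phytotoxic solvent mixture containing surfactant and applied either preemergence to seeds in loam–sand soil or postemergence to plants 2 to 18 cm tall (1- to 4-leaf stage). Response was rated visually against controls after 13 to 15 days, from 0 (none) to 100 (complete control).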

[7] = test system: pigweed (Amaranthus retroflexus); assay: Test D pre-/postemergence plant response; conditions: Postemergence
Summary of the method: as §2

[8] = test system: ragweed (common ragweed, Ambrosia elatior); assay: Test D pre-/postemergence plant response; conditions: Postemergence
Summary of the method: as §2

[9] = test system: soybean (Glycine max); assay: Test D pre-/postemergence plant response; conditions: Postemergence
Summary of the method: as §2

[10] = test system: yellow nutsedge (Cyperus esculentus); assay: Test D pre-/postemergence plant response; conditions: Postemergence
Summary of the method: as §2

[11] = test system: giant foxtail (Setaria faberii); assay: Test D pre-/postemergence plant response; conditions: Postemergence; for Plant response rating, Foxtail, Giant: scale 0 to 100, 0 no effect, 100 complete control
Summary of the method: as §2

[12] = test system: waterhemp (common waterhemp, Amaranthus rudis); assay: Test D pre-/postemergence plant response; conditions: Postemergence
Summary of the method: as §2

[13] = test system: johnsongrass (Sorghum halepense); assay: Test D pre-/postemergence plant response; conditions: Postemergence; for Plant response rating, Johnsongrass: scale 0 to 100, 0 no effect, 100 complete control
Summary of the method: as §2

[14] = test system: blackgrass (Alopecurus myosuroides); assay: Test D pre-/postemergence plant response; conditions: Postemergence; for Plant response rating, Blackgrass: scale 0 to 100, 0 no effect, 100 complete control
Summary of the method: as §2

[15] = test system: barnyardgrass (Echinochloa crus-galli); assay: Test D pre-/postemergence plant response; conditions: Postemergence; for Plant response rating, Barnyardgrass: scale 0 to 100, 0 no effect, 100 complete control
Summary of the method: as §2

[16] = test system: large (Lg) crabgrass (Digitaria sanguinalis); assay: Test D pre-/postemergence plant response; conditions: Postemergence; for Plant response rating, Crabgrass, Large: scale 0 to 100, 0 no effect, 100 complete control
Summary of the method: as §2

[17] = 31 g ai/ha, Preemergence, 0 to 100 scale where 0 is no effect and 100 is complete control
[18] = 125 g ai/ha, postemergence, 0 to 100 scale, 0 no effect, 100 complete control
[19] = Postemergence, 31 g ai/ha, 0 to 100 scale (0 no effect, 100 complete control)
[20] = Preemergence, 125 g ai/ha, 0 to 100 scale (0 no effect, 100 complete control)
[21] = 31 g ai/ha, scale 0 to 100 (0 no effect, 100 complete control)
[22] = 62 g ai/ha, scale 0 to 100, 0 no effect, 100 complete control
[23] = 125 g ai/ha, scale 0 to 100, 0 no effect, 100 complete control

## FC(F)c1cc(-c2ccccc2Oc2ncc(Br)cn2)on1 [Compound 212]
[1]; [17]
  Plant response rating, Pigweed: 100
[1]; [18]
  Plant response rating, Pigweed: 100
[1]; [19]
  Plant response rating, Pigweed: 90
[1]; [20]
  Pigweed plant response rating: 100
[2]; [18]
  Plant response rating, Wheat: 10
[2]; [19]
  Plant response rating, Wheat: 0
[3]; [17]
  Plant response rating, Foxtail, Giant: 60
[3]; [18]
  Plant response rating, Foxtail, Giant: 70
[3]; [19]
  Plant response rating, Foxtail, Giant: 10
[3]; [20]
  Foxtail, Giant plant response rating: 100
[4]; [18]
  Plant response rating, Corn: 20
[4]; [19]
  Plant response rating, Corn: 10
[5]; [17]
  Plant response rating, Barnyardgrass: 10
[5]; [18]
  Plant response rating, Barnyardgrass: 30
[5]; [19]
  Plant response rating, Barnyardgrass: 0
[5]; [20]
  Barnyardgrass plant response rating: 60
[6]; 16 g ai/ha
  Plant response rating (scale 0 to 100), Morningglory: 75
[6]; [21]
  Morningglory plant response rating: 98
[6]; [22]
  Morningglory plant response rating: 75
[6]; [23]
  Plant response rating, Morningglory: 98
[7]; 16 g ai/ha
  Plant response rating (scale 0 to 100), Pigweed: 100
[7]; [21]
  Pigweed plant response rating: 100
[7]; [22]
  Pigweed plant response rating: 100
[7]; [23]
  Plant response rating, Pigweed: 100
[8]; 16 g ai/ha
  Plant response rating (scale 0 to 100), Ragweed: 35
[8]; [21]
  Ragweed plant response rating: 40
[8]; [22]
  Ragweed plant response rating: 55
[8]; [23]
  Plant response rating, Ragweed: 60
[9]; 16 g ai/ha
  Plant response rating (scale 0 to 100), Soybean: 60
[9]; [21]
  Soybean plant response rating: 70
[9]; [22]
  Soybean plant response rating: 85
[9]; [23]
  Plant response rating, Soybean: 90
[10]; 16 g ai/ha
  Plant response rating (scale 0 to 100), Nutsedge, Yellow: 10
[10]; [21]
  Nutsedge, Yellow plant response rating: 5
[10]; [22]
  Nutsedge, Yellow plant response rating: 10
[10]; [23]
  Plant response rating, Nutsedge, Yellow: 5
[11]; 16 g ai/ha
  Plant response rating (scale 0 to 100), Foxtail, Giant: 10
[11]; [21]
  Foxtail, Giant plant response rating: 10
[11]; 62 g ai/ha
  Plant response rating, Foxtail, Giant: 15
[11]; 125 g ai/ha
  Plant response rating, Foxtail, Giant: 10
[12]; 16 g ai/ha
  Plant response rating (scale 0 to 100), Waterhemp: 80
[12]; [21]
  Waterhemp plant response rating: 98
[12]; [22]
  Waterhemp plant response rating: 100
[12]; [23]
  Plant response rating, Waterhemp: 100
[13]; 16 g ai/ha
  Plant response rating (scale 0 to 100), Johnsongrass: 5
[13]; [21]
  Johnsongrass plant response rating: 5
[13]; 62 g ai/ha
  Plant response rating, Johnsongrass: 20
[13]; 125 g ai/ha
  Plant response rating, Johnsongrass: 20
[14]; 16 g ai/ha
  Plant response rating (scale 0 to 100), Blackgrass: 0
[14]; [21]
  Blackgrass plant response rating: 0
[14]; 62 g ai/ha
  Plant response rating, Blackgrass: 0
[14]; 125 g ai/ha
  Plant response rating, Blackgrass: 10
[15]; 16 g ai/ha
  Plant response rating (scale 0 to 100), Barnyardgrass: 5
[15]; [21]
  Barnyardgrass plant response rating: 5
[15]; 62 g ai/ha
  Plant response rating, Barnyardgrass: 15
[15]; 125 g ai/ha
  Plant response rating, Barnyardgrass: 25
[16]; 16 g ai/ha
  Plant response rating (scale 0 to 100), Crabgrass, Large: 5
[16]; [21]
  Crabgrass, Large plant response rating: 10
[16]; 62 g ai/ha
  Plant response rating, Crabgrass, Large: 10
[16]; 125 g ai/ha
  Plant response rating, Crabgrass, Large: 15
